Experimental data from patent US6780853B1, “Neuroactive steroids of the androstane and pregnane series” (priority 1995, dated 2004).
Like-named read-outs stand apart in the source and are kept apart here.

How the values were obtained:
[1] = tested on: punished responding; assay: Geller-Seifter conflict test; assay type: in vivo, Sprague-Dawley rats
From the text: This animal model of human anxiety utilizes a conditioned state of conflict in rats to ascertain the anxiolytic properties of drugs. Rats are conditioned to bar press for positive reinforcement under two schedules of behavior (Geller and Seifter, Psychopharmacologia 1:482-492 (1960)). The first includes bar pressing under a […] schedule without punishment. The second component is a fixed ratio schedule with each bar press resulting in a positive reinforcement and a punishment The punished component produces a state of conflict within the animal. […] An anxiolytic response would increase the punished responding without affecting the unpunished responding.
Male albino Sprague-Dawley rats (Charles River Labs, Wilmington, Mass.) weighing 250-300 g were used for conflict experiments and were kept on a restricted diet of Purina Lab Chow food pellets with water available at all times to maintain body weight at 85% of their free-feeding young adult levels. Rats were housed individually under a 12-hour light dark cycle with lights on from 0700-1900.
The ant-anxiety (punishment-lessening) and response depressant effects of compounds of the present invention were measured in rats by the conflict test of Geller and Seifter. In this 63-min test hungry rats perform a lever-press response to obtain a sweetened milk reward. The reinforcement schedule consists of punishment and nonpunishment components, alternating approximately every 15 min. Rats were trained in test chambers (Coulbourn instruments) with a lever mounted in one wall, a small dipper that delivered the 0.1-mL milk reward (1 part Eagle condensed milk:2 parts water), and a metal grid floor through which the foot-shock punishment was administered. A DEC PDP 11/73 minicomputer running SKED (State Systems) was used for programming and recording.
Rats initially learned to respond on a continuous reinforcement schedule and progressed rapidly to 30-sec, 1-min, and 2-min variable interval (VI) schedules. On the continuous reinforcement schedule, rats received milk reward following every lever press; on the VI schedules, milk rewards were available at infrequent and variable intervals, eventually at an average of once every 2 min. Four 3-min “conflict” periods were then introduced on the unpunished VI baseline; the first started after 3 min of VI performance and the others were alternated between 12-min periods of VI responding. During conflict periods, which were signalled by the presentation of a light and a tone, the continuous reinforcement schedule was again in force and each lever press delivered both a milk reward and a brief […] foot-shock punishment. […]

[2] = tested on: BIC (bicuclline) convulsions; conditions: cited from earlier work
[3] = tested on: STR (strychnine) convulsions; conditions: cited from earlier work
[4] = tested on: metrazol induced convulsions; conditions: cited from earlier work
[5] = tested on: maximal electroshock tonic seizure; conditions: cited from earlier work
[6] = tested on: Progesterone Receptors; assay: Inhibition of 3H-Progesterone Binding to the Bovine Uteral Progesterone Receptors; conditions: competitor 10^−6M; 3H-progesterone 0.15 nM
[7] = molecular target: T1, Mineralocorticoid Receptors (Rattus norvegicus, UniProt P22199); assay: Inhibition of 3H-Aldosterone Binding to Hippocampal Mineralocorticoid Receptors; conditions: competitor 10^−6M; 3 nM 3H-aldosterone, RU28362 0.5 μM
T1 construct: To isolate the mineralocorticoid receptor, brain cytosol fractions were prepared; from tissue; host or cells: brain (hippocampal) cytosol of adrenalectomized rats
T1 sequence (P22199 1-981): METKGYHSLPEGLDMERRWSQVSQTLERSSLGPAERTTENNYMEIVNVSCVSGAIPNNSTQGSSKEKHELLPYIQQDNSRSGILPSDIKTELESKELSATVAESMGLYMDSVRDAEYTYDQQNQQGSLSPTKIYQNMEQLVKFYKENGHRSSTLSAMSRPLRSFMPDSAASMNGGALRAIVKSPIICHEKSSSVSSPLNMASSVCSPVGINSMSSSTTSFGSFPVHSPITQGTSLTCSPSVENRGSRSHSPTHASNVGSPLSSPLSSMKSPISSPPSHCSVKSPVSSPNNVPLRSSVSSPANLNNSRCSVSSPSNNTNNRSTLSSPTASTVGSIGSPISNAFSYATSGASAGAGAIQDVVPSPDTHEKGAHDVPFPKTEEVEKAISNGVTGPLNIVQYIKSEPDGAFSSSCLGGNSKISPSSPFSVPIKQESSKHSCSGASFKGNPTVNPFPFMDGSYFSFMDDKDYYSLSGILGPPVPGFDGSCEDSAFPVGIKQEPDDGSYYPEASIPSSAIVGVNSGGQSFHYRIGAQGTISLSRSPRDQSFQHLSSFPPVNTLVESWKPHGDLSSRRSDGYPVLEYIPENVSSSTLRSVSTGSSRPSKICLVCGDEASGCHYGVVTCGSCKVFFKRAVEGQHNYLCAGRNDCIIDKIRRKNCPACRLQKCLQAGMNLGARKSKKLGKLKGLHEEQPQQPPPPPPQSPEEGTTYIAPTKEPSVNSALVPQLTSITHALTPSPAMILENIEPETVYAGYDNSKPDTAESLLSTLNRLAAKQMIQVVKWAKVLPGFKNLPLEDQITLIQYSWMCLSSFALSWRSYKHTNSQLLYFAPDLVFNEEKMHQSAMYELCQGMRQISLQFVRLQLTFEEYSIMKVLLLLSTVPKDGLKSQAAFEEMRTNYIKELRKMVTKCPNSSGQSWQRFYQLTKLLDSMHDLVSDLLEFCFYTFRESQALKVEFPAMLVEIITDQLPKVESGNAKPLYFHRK
Protocol: (§1) Various hormonal activities of representative neuroactive steroids were further studied through testing their potential estrogenic, mineralocorticoid and glucocorticoid activities. These activities were analyzed by monitoring the ability of the compounds to inhibit binding of the steroid hormones to their respective hormone receptors.
In Table 4, rats were adrenalectornized 3 days prior to sacrifice.

[8] = molecular target: T2, Estrogen Receptors (Bos taurus, UniProt P49884); assay: Inhibition of 3H-Estradiol Binding to Bovine Uteral Estrogen Receptors; conditions: competitor 10^−6M; 3H-estradiol 0.15 nM
T2 construct: from tissue; host or cells: bovine uterus cytosol
T2 sequence (P49884 1-596): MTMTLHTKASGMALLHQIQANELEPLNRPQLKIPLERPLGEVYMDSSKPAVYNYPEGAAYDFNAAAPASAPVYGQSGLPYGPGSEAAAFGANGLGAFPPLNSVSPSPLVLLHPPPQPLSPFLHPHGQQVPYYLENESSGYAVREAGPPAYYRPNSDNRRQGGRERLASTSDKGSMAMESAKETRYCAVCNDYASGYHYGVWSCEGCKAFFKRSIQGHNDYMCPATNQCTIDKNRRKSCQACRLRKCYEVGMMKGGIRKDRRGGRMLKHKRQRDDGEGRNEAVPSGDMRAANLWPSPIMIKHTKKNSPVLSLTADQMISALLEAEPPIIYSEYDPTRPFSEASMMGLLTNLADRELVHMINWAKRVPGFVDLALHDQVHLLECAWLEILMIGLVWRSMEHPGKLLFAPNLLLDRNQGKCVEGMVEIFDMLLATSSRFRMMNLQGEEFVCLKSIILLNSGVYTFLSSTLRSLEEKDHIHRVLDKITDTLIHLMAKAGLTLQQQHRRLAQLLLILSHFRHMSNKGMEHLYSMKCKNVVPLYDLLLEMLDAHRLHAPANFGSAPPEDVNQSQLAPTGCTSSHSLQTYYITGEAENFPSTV
Protocol: as §1

[9] = molecular target: T3, Glucocorticoid Receptors (Rattus norvegicus, UniProt P06536); assay: Inhibition of 3H-Dexamethasone Binding to Glucocorticoid Receptors; conditions: competitor 10^−6M; 3 nM 3H-dexamethasone
T3 construct: from tissue; host or cells: rat brain cytosol
T3 sequence (P06536 1-795): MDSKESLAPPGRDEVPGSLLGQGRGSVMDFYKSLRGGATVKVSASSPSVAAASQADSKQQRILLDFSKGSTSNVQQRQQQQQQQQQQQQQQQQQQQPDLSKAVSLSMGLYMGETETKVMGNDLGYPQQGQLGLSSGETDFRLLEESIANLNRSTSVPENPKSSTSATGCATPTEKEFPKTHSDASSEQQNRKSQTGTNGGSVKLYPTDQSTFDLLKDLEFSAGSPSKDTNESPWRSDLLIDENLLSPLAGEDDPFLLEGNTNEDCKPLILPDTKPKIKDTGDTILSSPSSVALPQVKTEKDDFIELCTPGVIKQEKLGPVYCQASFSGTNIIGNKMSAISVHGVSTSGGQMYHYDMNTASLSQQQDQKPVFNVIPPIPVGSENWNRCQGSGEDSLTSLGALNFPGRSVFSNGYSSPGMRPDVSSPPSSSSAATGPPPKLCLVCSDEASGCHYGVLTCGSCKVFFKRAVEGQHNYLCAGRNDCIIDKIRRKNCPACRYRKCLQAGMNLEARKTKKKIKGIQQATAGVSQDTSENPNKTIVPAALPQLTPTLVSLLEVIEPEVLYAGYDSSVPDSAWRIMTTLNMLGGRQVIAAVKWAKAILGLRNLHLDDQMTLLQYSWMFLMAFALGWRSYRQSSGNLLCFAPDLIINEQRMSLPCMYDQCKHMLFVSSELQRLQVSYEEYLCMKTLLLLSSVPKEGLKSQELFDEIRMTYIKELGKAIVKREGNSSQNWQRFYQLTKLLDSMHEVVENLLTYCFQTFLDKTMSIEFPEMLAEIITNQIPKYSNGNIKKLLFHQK
Protocol: as §1
For Table 4, brain cytosol fractions were prepared as for Table 3, and the compounds were incubated with 3 nM of ^3H-dexamethasone (the specific ligand for the glucocorticoid receptor).

[10] = data from Swinyard & Woodhead 1982; cited from earlier work
[11] = tested on: TBPS; conditions: data from Swinyard & Woodhead 1982; cited from earlier work
[12] = convulsant i.v., data from Worms et al. 1982
[13] = data from Swinyard & Woodhead 1982

SMILES: COCC1(O)CCC2(C)C(CCC3C2CCC2(C)C(C(=O)CSS(=O)(=O)[O-])CCC32)C1.[Na+] (stereo not drawn) [Sodium S-(3α-hydroxy-3β-methoxymethyl-5α-pregnan-20-on-21-yl)thiosulfate]
- Geller/Seifter (% or control) ([1]; PO, water, 32 mg/kg): 4487.5 % or control

SMILES: CCOC[C@@]1(O)CC[C@@]2(C)[C@@H](CC[C@@H]3[C@@H]2CC[C@]2(C)[C@@H](C(C)=O)CC[C@@H]32)C1 [3α-Hydroxy-3β-ethoxymethyl-5α-pregnan-20-one]
- Geller/Seifter (% or control) ([1]; IP, 50% hpbcd, 40 mg/kg): 3743 % or control

SMILES: NC(=O)CCC/N=C(\c1ccc(Cl)cc1)c1cc(F)ccc1O [Progabide]
- ED50 BIC [2, 12]: 30 mg/kg
- ED50 STR [3, 12]: 75 mg/kg
- ED50 PTZ [4, 12]: 30 mg/kg
- ED50 MES ([5]; data from Worms et al. 1982): 75 mg/kg

SMILES: CC(C)(O)[C@H]1CC[C@H]2[C@@H]3CC[C@H]4C[C@H](O)CC[C@]4(C)[C@H]3CC[C@]12C [5α-pregnan-20-dimethyl-3α,20-diol, 5α-pregnan-20-dimethyl-3α,20-diol]
- % of Inhibition [6]: 0%
- % of Inhibition [7]: 0%
- % of Inhibition [8]: 0%
- % of Inhibition [9]: 2.6%

SMILES: CCC1(c2ccccc2)C(=O)NC(=O)NC1=O [Phenobarbital]
- ED50 RR [10]: 69 mg/kg

SMILES: CC(=O)C1CCC2C3CCC4CC(O)(C(F)(F)F)CCC4(C)C3C(N(C)C)CC12C (stereo not drawn) [11α-N,N-Dimethylamino-3α-hydroxy-3β-trifluoromethyl-5β-pregnan-20-one]
- Geller/Seifter (% or control) ([1]; IP, citrate, 20 mg/kg): 145 % or control

SMILES: CCCC(CCC)C(=O)O [Valproate]
- ED50 RR [10]: 514 mg/kg

SMILES: O=C1CN=C(c2ccccc2Cl)c2cc([N+](=O)[O-])ccc2N1 [Clonazepam]
- ED50 RR [10]: 0.184 mg/kg
- ED50 BIC [2, 13]: 0.0046 mg/kg
- ED50 STR [3, 13]: >300 mg/kg
- ED50 PTZ [4, 13]: 0.025 mg/kg
- ED50 TBPS [11]: 205 mg/kg
- ED50 MES [5, 13]: 111 mg/kg

SMILES: COC[C@@]1(O)CC[C@@]2(C)[C@@H](CC[C@@H]3[C@@H]2CC[C@]2(C)[C@@H](C(C)=O)CC[C@@H]32)C1 [3α-Hydroxy-3β-methoxymethyl-5α-pregnan-20-one]
- Geller/Seifter (% or control) ([1]; IP, 50% hpbcd, 10 mg/kg): 958 % or control

SMILES: C[C@]12CC[C@@H](O)C[C@H]1CC[C@@H]1[C@@H]2CC[C@]2(C)[C@@H](C(=O)CO)CC[C@@H]12 [5β-pregnan-3α,21-diol-20-one, 5β-pregnan-3α,21-diol-20-one]
- % of Inhibition [6]: 6%
- % of Inhibition [7]: 13.8%
- % of Inhibition [8]: 0%
- % of Inhibition [9]: 8.2%
